US20240401101A1, “A LIVE CELL ASSAY TO DETERMINE PERMEABILITY OF TEST MOLECULES TO AND/OR WITHIN THE PEPTIDOGLYCAN SCAFFOLD OF BACTERIA CELLS” (priority 2021, published 2024)

Key:
Assay type in all cases: cell-based, Mycobacterium smegmatis
M. smegmatis mc^2 155 [1] = assay: PAC-MAN competition with azide-modified test molecules; conditions: concentration dependent analysis, 2 h, then Fl-az; read-out: EC50 of apparent permeation
Description: Competition with test molecules. To a 96-well plate added 100 uL DBCO-modified M. smegmatis mc^2 155 cells pre well with 50 μM test molecules, in triplicate respectively. The plate was incubated in 37° C. for 2 h. The cells were spun down for 2 min at 3000 g. The supernatant was decanted, and 50 μM FAM-N3 was then added to each well, followed by incubation in 37° C. for 1 h. The cells were then spun down again, and the pellets were washed with PBST for 2 times and fixed with 4% formaldehyde for 15 mins. The samples were then analyzed by Attune™ NxT Acoustic Focusing Cytometer.
LLysN3 competition. To a 96-well plate added 100 uL DBCO-modified M. smegmatis mc^2 155 cells pre well with different concentration of L-Lys-N3 described in the main text, in triplicate respectively. The plate was incubated in 37° C. for 2 h. The cells were spun down for 2 min at 3000 g. […] The samples were then analyzed by Attune® NxT Acoustic Focusing Cytometer.
Next, we set out to benchmark the ability of the assay to report on the permeability of a set of test small molecules by performing a pilot screen with azide-conjugated compounds. […] Next, cells are treated with Fl-az to quantify the level of unreacted DBCO epitopes.^42 Finally, cells are analyzed by flow cytometry to measure total cellular fluorescence.

M. smegmatis mc^2 155 [2] = assay: Example IV: metabolic PG labeling of Msm with DBCO tags followed by azide fluorophore, flow cytometry
Description: General method for bacterial peptidoglycan modification. M. smegmatis strains was inoculated from the glycerol stock to the according media and grown for 24 hours until 0.5-0.6 OD, tetrapeptide probes were added to the media and the cells were grown overnight to achieve stationary phase. The cells were harvested the next day and spun down for 2 min at 3000 g, washed with phosphate buffered saline with tween80 (PBST, PBS with 0.05% tween 80) two times and resuspended in PBST to yield DBCO-modified M. smegmatis cells for further labeling and other experiments.
(§1) DBCOtetra compared with stereo control and single amino acid DBCO. M. smegmatis mc^2 155 was inoculated from stationary phase in 1:100 dilution to a fresh 7H9 media with ADC. 25 μM Dap-DBCO, DBCOtetra or DBCOtera(L) were added to the culture tubes respectively, and the cells were grown for 36-40 hours until stationary phase. The cells were harvested and spun down for 2 min at 3000 g, washed with PBST two times and resuspended in PBST. To a 96-well plate added 100 μL cells pre well with 50 μM FAM-N3 in triplicate. The plate was incubated in 37° C. for 1 h and spun down for 2 min at 3000 g. The supernatant was decanted, and the pellets were washed with PBST for 2 times and fixed with 4% formaldehyde for 15 mins. The samples were then analyzed by Attune™ NxT Acoustic Focusing Cytometer.
as §1, with “Confirm for click chemistry on PG.” for “DBCOtetra compared with stereo control and single amino acid DBCO.”, “μM” for “μM Dap-DBCO,”, “FL-tetra” for “DBCOtera(L)”, “uL” for “μL”, “FAM-N3 or 5-carboxy fluorescein accordingly” for “FAM-N3”
as §1, with “Different concentrations of DBCOtetra.” for “DBCOtetra compared with stereo control and single amino acid DBCO.”, “ADC. 5 μM, 10 μM or” for “ADC.”, “μM” for “μM Dap-DBCO,”, “DBCOtetra” for “DBCOtetra or DBCOtera(L)”, “1h” for “1 h”
Different concentration of FAM-N3 and different time. M. smegmatis mc^2 155 was inoculated from stationary phase in 1:100 dilution to a fresh 7H9 media with ADC. 25 μM DBCOtetra were added to the culture tubes, and the cells were grown for 36-40 hours until stationary phase. The cells were harvested and spun down for 2 min at 3000 g, washed with PBST two times and resuspended in PBST. To a 96-well plate added 100 μL cells pre well with different concentration of FAM-N3 described in the main text, 9 wells each. […] The samples were then analyzed by Attune™ NxT Acoustic Focusing Cytometer. […]

Msm ldtΔ5 (PM2750 Δ5) = assay: TetD labeling of Ldt knock out strain; conditions: 25 μM TetD, 50 μM Fl-Az
Description: Ldt knock down strain. M. smegmatis mc^2 155 and PM2750 Δ5 were inoculated from the glycerol stock to the according media and grown for 24 hours until 0.5-0.6 OD, 25 μM DBCOtetra were added to the media, and the cells were grown overnight to achieve stationary phase. The cells were harvested and spinned down for 2 min at 3000 g, washed with PBST two times and resuspended in PBST. To a 96-well plate added 100 uL cells pre well with 50 μM FAM-N3 accordingly in triplicate. The plate was incubated in 37° C. for 1 h and spun down for 2 min at 3000 g. The supernatant was decanted, and the pellets were washed with PBST for 2 times and fixed with 4% formaldehyde for 15 mins. The samples were then analyzed by Attune™ NxT Acoustic Focusing Cytometer.

M. smegmatis cells = assay: Ethidium bromide and Nile red whole-cell accumulation assay; conditions: cells treated with vehicle or TetD (25 or 50 μM); both dyes
Description: Ethidium bromide and Nile red whole-cell accumulation assay. To a Costar 96-well half area black opaque flat bottom plate added 100 uL DBCO-modified M. smegmatis cells each well with 5 μM ethidium bromide and 10 μM Nile red in triplicates, respectively. The fluorescent intensity at different time points were taken by a Synergy H1 microplate reader for 90 min with 3 min intervals and continuously orbital shaking. Wavelengths ethidium bromide, excitation 530 nm, emission 590 nm; Nile red, excitation 540 nm, emission 630 nm.

[N-]=[N+]=NCCCC[C@H](N)C(=O)O [Lys]
EC50 (M. smegmatis mc^2 155 [1]): 100 µM

C[C@H](NC(=O)CCC(=O)N1Cc2ccccc2C#Cc2ccccc21)C(=O)N[C@H](CCC(=O)N[C@@H](CCCCN)C(=O)N[C@H](C)C(=O)O)C(N)=O [TetD]
PG labeling levels (fluorescence) above vehicle treated cells (M. smegmatis mc^2 155 [2]; Msm, metabolic label then Fl-az): ~85 fold | fluorescence levels of Msm (M. smegmatis mc^2 155 [2]; metabolic label and/or fluorophore as named): concentration-dependent increase in cellular fluorescence | decrease of fluorescence levels relative to the parental cells (Msm ldtΔ5 (PM2750 Δ5)): ~7 fold | accumulation of the permeability probe (EtBr or Nile Red) (M. smegmatis cells): no significant change in the accumulation of the permeability probe
